The OligoGym collection
Where “and” joins values, the source holds several entries; their conditions need not be identical. Equal values may be shown once. After the bases stand the sugars from the 5' end (letter, count) and the backbone: PS all phosphorothioate, else s phosphorothioate and o phosphodiester by linkage. Methylation of C is not given here. l = locked nucleic acid (LNA); d = 2'-deoxy (DNA)

target: ANGPTL2; conditions: ASO, 5 µM

Sequence	target mRNA inhibition [%]
GTTGATAGTTTATCTCCT (sugars l1 d14 l3, PS)	64.1
GTTGATGATGCGGTTGTAG (sugars l1 d16 l2, PS)	22.9
TAATAGGCACACACCCAGAC (sugars l1 d17 l2, PS)	27.2
TAATGGCTGAGATGCAG (sugars l4 d11 l2, PS)	36
TAATTCACCGCCAAATTAC (sugars l3 d13 l3, PS)	27.6
TCCGGTAATGGCCCC (sugars l1 d12 l2, PS)	34
TGTTTGGAAATGTTATCT (sugars l3 d11 l4, PS)	80.9
TTAGTGGAAGGTGTTGG (sugars l3 d12 l2, PS)	51.1
TTATGCACTCGGTTCTCC (sugars l1 d15 l2, PS)	30.6
TTGATGATGCGGTTGTA (sugars l3 d12 l2, PS)	76.5
TTGATGATGCGGTTGTAG (sugars l3 d13 l2, PS)	70.7
TTGGTTCGTCAGCCAG (sugars l1 d12 l3, PS)	49.1
TTTCTAAACTCTCACCCTG (sugars l1 d15 l3, PS)	26.4

same assay, conditions: ASO, 25 µM

Sequence	target mRNA inhibition [%]
GTTGATAGTTTATCTCCT (sugars l1 d14 l3, PS)	76.7
GTTGATGATGCGGTTGTAG (sugars l1 d16 l2, PS)	34
TAATAGGCACACACCCAGAC (sugars l1 d17 l2, PS)	43.3
TAATGGCTGAGATGCAG (sugars l4 d11 l2, PS)	52.6
TAATTCACCGCCAAATTAC (sugars l3 d13 l3, PS)	36.8
TCCGGTAATGGCCCC (sugars l1 d12 l2, PS)	51.8
TGTTTGGAAATGTTATCT (sugars l3 d11 l4, PS)	87.1
TTAGTGGAAGGTGTTGG (sugars l3 d12 l2, PS)	62.8
TTATGCACTCGGTTCTCC (sugars l1 d15 l2, PS)	46.6
TTGATGATGCGGTTGTA (sugars l3 d12 l2, PS)	83.1
TTGATGATGCGGTTGTAG (sugars l3 d13 l2, PS)	77.8
TTGGTTCGTCAGCCAG (sugars l1 d12 l3, PS)	65
TTTCTAAACTCTCACCCTG (sugars l1 d15 l3, PS)	25.1

target: MYH7; conditions: ASO, CC-2580, 5 µM

Sequence	target mRNA inhibition
AAAGGATGTAAGATGCA (sugars l4 d9 l4, PS)	88% and 89%
CAGCTTGGCGATGATCT (sugars dlddlddddddlddlll, PS)	50% and 32%
CAGCTTGGCGATGATCT (sugars l2 d8 l1 d2 l4, PS)	37% and 35%
CAGCTTGGCGATGATCT (sugars l2 d8 l1 d3 l3, PS)	48% and 29%
CAGCTTGGCGATGATCT (sugars l2 d9 l1 d2 l3, PS)	59% and 54%
CAGCTTGGCGATGATCT (sugars l2 d11 l1 d1 l2, PS)	66% and 46%
CAGCTTGGCGATGATCT (sugars l3 d9 l1 d2 l2, PS)	64% and 46%
CAGCTTGGCGATGATCT (sugars lddldddddddldldll, PS)	14% and 8%
CAGCTTGGCGATGATCT (sugars lddlddddddldldlll, PS)	20% and 19%
CAGCTTGGCGATGATCT (sugars lddlddddddlldddll, PS)	-44% and -36%
CAGCTTGGCGATGATCT (sugars lddldddllddddddll, PS)	23% and 16%
CAGCTTGGCGATGATCT (sugars lddldldddldddddll, PS)	12% and -4%
CAGCTTGGCGATGATCT (sugars lddlldddddlddddll, PS)	31% and 7%
CAGCTTGGCGATGATCT (sugars ldldddddddldlddll, PS)	9% and -10%
CAGCTTGGCGATGATCT (sugars ldldddddddlldldll, PS)	38% and 34%
CAGCTTGGCGATGATCT (sugars ldldlldlddddddlll, PS)	30% and 32%
CAGCTTGGCGATGATCT (sugars ldllddlddldddddll, PS)	28% and 5%
CAGCTTGGCGATGATCT (sugars llddddddddlldldll, PS)	14% and 18%
CAGCTTGGCGATGATCT (sugars lldddddddldddldll, PS)	5% and -8%
CAGCTTGGCGATGATCT (sugars llddlddlddddddlll, PS)	9% and -16%
CAGCTTGGCGATGATCT (sugars lldlldddddlddddll, PS)	34% and 16%
CTTGGCAATGATCTCATCC (sugars l1 d11 l1 d2 l4, PS)	54% and 33%
CTTGGCAATGATCTCATCC (sugars l3 d10 l1 d2 l3, PS)	80% and 64%
CTTGGCAATGATCTCATCC (sugars l3 d11 l1 d1 l3, PS)	85% and 74%
CTTGGCAATGATCTCATCC (sugars ldddddddldddlddldll, PS)	50% and 34%
CTTGGCAATGATCTCATCC (sugars ldddddddlddlddlddll, PS)	44% and 27%
CTTGGCAATGATCTCATCC (sugars ldddddddldlddldldll, PS)	22% and 4%

Sequence	target mRNA inhibition
CTTGGCAATGATCTCATCC (sugars lddddddllddlddlddll, PS)	26% and 5%
CTTGGCAATGATCTCATCC (sugars ldddldddddldlddddll, PS)	12% and 1%
CTTGGCAATGATCTCATCC (sugars lddldddddddlddlddll, PS)	60% and 37%
CTTGGCAATGATCTCATCC (sugars lddldddddddldldldll, PS)	34% and 17%
CTTGGCAATGATCTCATCC (sugars lddlddddddlddldldll, PS)	14% and 6%
CTTGGCAATGATCTCATCC (sugars lddlddddddldlddldll, PS)	-3% and -25%
CTTGGCAATGATCTCATCC (sugars lddlddddddlldldldll, PS)	-14% and -32%
CTTGGCAATGATCTCATCC (sugars ldldddddddllddlddll, PS)	64% and 47%
CTTGGCAATGATCTCATCC (sugars ldldddddddlldldldll, PS)	24% and 29%
CTTGGCAATGATCTCATCC (sugars lldddddddlddldlddll, PS)	59% and 34%
CTTGGCAATGATCTCATCC (sugars llddlddddddddlddlll, PS)	53% and 28%
CTTGGCAATGATCTCATCC (sugars lldlddddddddddldlll, PS)	69% and 47%
CTTGGCAATGATCTCATCC (sugars lldldddddddlddlddll, PS)	58% and 45%
CTTGGCAATGATCTCATCC (sugars lllddddddlddlddldll, PS)	44% and 26%
TCAGCTTGGCGATGATCT (sugars l2 d6 l1 d5 l4, PS)	58% and 46%
TCAGCTTGGCGATGATCT (sugars l2 d6 l1 d6 l3, PS)	47% and 23%
TCAGCTTGGCGATGATCT (sugars l2 d9 l1 d3 l3, PS)	40% and 33%
TCAGCTTGGCGATGATCT (sugars l2 d11 l1 d1 l3, PS)	64% and 55%
TCAGCTTGGCGATGATCT (sugars l3 d9 l1 d1 l4, PS)	42% and 36%
TCAGCTTGGCGATGATCT (sugars l4 d12 l2, PS)	76% and 56%
TCAGCTTGGCGATGATCT (sugars lddlddldddddddldll, PS)	24% and 20%
TCAGCTTGGCGATGATCT (sugars lddldldddddddlldll, PS)	3% and -15%
TCAGCTTGGCGATGATCT (sugars ldlddldddddddlldll, PS)	36% and 19%
TCAGCTTGGCGATGATCT (sugars ldlddldldlddddddll, PS)	14% and -11%
TCAGCTTGGCGATGATCT (sugars ldlddlldlddddddlll, PS)	31% and 16%
TCAGCTTGGCGATGATCT (sugars ldldldddddddlddlll, PS)	33% and 18%
TCAGCTTGGCGATGATCT (sugars ldldlddddddlddldll, PS)	5% and -16%
